Assay results: patent publication US12465610B2, “Compounds and methods for the treatment of PKR-associated diseases” (Board of Regents, The University of Texas System, priority 2019, dated 2025)

Columns and labels:
[1] = system: acidic vesicular organelles (lysosomes); assay: LysoTracker Red staining; assay type: cell-based, human; conditions: HeLa, H1299, and MDA-MB-231 cells, 5 μM, 72 hours
Text: (§1) Western blotting was next used to evaluate proteins known to be involved in AP-1/2/3 complexes in lung (H1299) and breast (MDA-MB-231) cancer cells after treatment with Pac 1 or Pac 2. […] AP-1 and AP-2 mediate protein sorting in the endosome, trans-Golgi network, and plasma membrane. […] The impact of Pac 1 was then investigated on lysosome function by staining cells with the acidophilic dye LysoTracker Red.
LysoTracker red staining, confocal microscopy, and tem: The acidophilic dye LysoTracker Red stains lysosomes. Cancer cells (1×10^5 cells/well) were grown on two-well chamber slides (Becton Dickinson Labware, Bedford, MA) to 70% confluence and then treated with PKR siRNA or control siRNA. Forty-eight hours later (when cells had grown to 70-80% confluence), the medium was replaced with medium containing 75 nM LysoTracker Red. The cells were incubated with LysoTracker Red for 1 hour and then rinsed one time with 1 mL of PBS. The cells were kept in PBS for microscopic imaging.

H1299 = assay: SRB cell viability assay; assay type: cell-based, human; conditions: 72 hours after treatment
Experimental: (§2) The effects of Pac 1 and Pac 2 were next examined on PKR protein expression in HeLa cells using Western blot analysis. […] No reduction in normal cell viability was observed after treatment with Pac 1 or Pac 2 (FIGS. 5F and G). […] Because most of the cancer cell lines that were tested were more sensitive to Pac 1 than to Pac 2, Pac 1 was further investigated.
(§3) Cell viability assays: For SRB assays, cells (2-8×10^3/well in 100 μL of culture medium) were seeded in 96-well flat-bottomed plates and treated the next day with compounds at the indicated concentrations. After the indicated treatments, cells were fixed with trichloroacetic acid. The protein was stained with SRB, and the optical density at 570 nm was determined. Relative cell viability was calculated by setting the viability rate of the control cells (exposed only to dimethyl sulfoxide) at 100% and comparing the viability of the treated cells with that of the controls. The experiments were performed at least three times for each cell line. The viability of leukemia cell lines was determined by using a 3-(4,5-dimethylthiazol-2-yl)-2,5-diphenyltetrazolium bromide assay.
(§4) For the SRB assay, cells (2-8×10^3/well in 100 μL of culture medium) were seeded in 96-well flat-bottomed plates and treated the next day with compounds at the indicated concentrations. After treatment for the indicated times, cells were fixed with trichloroacetic acid. The cells were stained using SRB, and the optical density at 570 nm was determined. Relative cell viability was determined by setting the viability of the control cells (exposed only to dimethyl sulfoxide) at 100% and comparing their viability with that of the treated cells. The experiments were performed at least three times for each cell line.

A549 = assay: SRB cell viability assay; assay type: cell-based, human; conditions: 72 hours after treatment
Experimental: as §2, §3, §4

HeLa cells = assay: Microscopic analysis of morphologic changes; assay type: cell-based, human
Text: Anticancer effects of PKR-targeting compounds depend on PKR expression status: To identify compounds that can target lysosomes in PKR-positive cells or MVBs/exosomes in PKR-negative cells, the 10,000-compound ChemBridge library was screened for compounds with different effects on the growth of HeLa and HeLaPKRkd cells. […] SRB assays were next used to determine cell viability after treatment with Pac 1 or Pac 2.
Identification of PKR-associated compounds and cytotoxicity studies: The library of 10,000 compounds was screened for those with different effects on the growth of HeLa and HeLaPKRkd cells. For this screening, both HeLa and HeLaPKRkd cells were seeded in 96-well plates in parallel and treated with each compound at a final concentration of 5 μg/mL. Cells treated with dimethyl sulfoxide (final concentration, 1%) were used as controls. Treated cells were observed under a microscope to detect morphologic changes, and their viability was determined using SRB assays 2 and 3 days after treatment. The compounds initially observed to have different effects on HeLa and HeLaPKRkd cells were subjected to two confirmatory screenings.

PKR = PKR (Homo sapiens, UniProt P19525); assay: ADP-Glo kinase assay, high-throughput enzymatic screening (Reaction Biology); assay type: biochemical
PKR, sequence (P19525 whole entry): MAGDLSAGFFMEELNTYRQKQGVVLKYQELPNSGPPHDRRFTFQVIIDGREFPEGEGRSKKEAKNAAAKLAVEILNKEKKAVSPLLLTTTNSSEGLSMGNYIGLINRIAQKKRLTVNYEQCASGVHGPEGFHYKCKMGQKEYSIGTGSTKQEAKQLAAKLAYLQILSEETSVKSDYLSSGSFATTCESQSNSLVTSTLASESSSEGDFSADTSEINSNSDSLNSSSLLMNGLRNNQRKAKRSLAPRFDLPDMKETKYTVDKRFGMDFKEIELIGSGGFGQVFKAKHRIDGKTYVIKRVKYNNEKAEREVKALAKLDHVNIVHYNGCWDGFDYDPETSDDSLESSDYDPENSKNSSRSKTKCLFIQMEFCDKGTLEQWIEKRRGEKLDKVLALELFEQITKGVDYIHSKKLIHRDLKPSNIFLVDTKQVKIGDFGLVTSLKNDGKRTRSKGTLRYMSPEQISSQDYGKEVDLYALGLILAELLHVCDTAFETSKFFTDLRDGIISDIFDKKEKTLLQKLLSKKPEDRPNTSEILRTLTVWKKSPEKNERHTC

[2] = system: MDA-MB-231 tumor xenografts; assay: Tumor xenograft growth in mice; assay type: in vivo; conditions: intravenous injection, over 4 weeks
Experimental: as §2
(§5) Analysis of in vivo tumor growth after treatment with Pac 1: For in vivo tumor studies, MDA-MB-231 or H1299 cells (˜1×10^6) were resuspended in 0.1 mL of PBS and injected subcutaneously into the flanks of female severe combined immunodeficiency mice. When the resulting tumors reached 100-150 mm^3 in volume, the mice were stratified into groups of eight animals, with each group having approximately equal mean tumor volumes, and administered intravenous injection of Pac 1. The animals were weighed weekly, and their tumor diameters were measured twice weekly. When a tumor reached 2000 mm^3 or became necrotic, the animal was killed.

H1299 tumor xenografts = assay: Tumor xenograft growth in mice; assay type: in vivo
Experimental: as §2, §5

[3] = target: PKR coimmunoprecipitated with PI4K2A (Homo sapiens, UniProt Q9BTU6); assay type: cell-based
PKR coimmunoprecipitated with PI4K2A, sequence (Q9BTU6 whole entry, looked up): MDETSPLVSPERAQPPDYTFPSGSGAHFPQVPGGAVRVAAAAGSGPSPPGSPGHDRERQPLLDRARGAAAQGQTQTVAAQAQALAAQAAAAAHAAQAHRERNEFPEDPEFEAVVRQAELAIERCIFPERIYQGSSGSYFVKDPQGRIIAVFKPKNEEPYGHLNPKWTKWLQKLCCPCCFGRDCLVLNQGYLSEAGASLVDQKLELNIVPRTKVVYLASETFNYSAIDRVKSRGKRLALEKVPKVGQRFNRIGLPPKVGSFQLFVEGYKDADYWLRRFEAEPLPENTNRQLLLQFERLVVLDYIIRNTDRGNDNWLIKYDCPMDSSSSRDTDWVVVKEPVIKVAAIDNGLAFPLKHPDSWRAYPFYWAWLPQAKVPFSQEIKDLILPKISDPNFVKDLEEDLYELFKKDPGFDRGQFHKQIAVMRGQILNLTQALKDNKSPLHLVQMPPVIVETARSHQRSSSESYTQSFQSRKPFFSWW

AP-1/2/3 complexes = assay: Western blot of AP-1, AP-2 and AP-3 complex-associated proteins; assay type: cell-based, human; conditions: H1299 and MDA-MB-231 cells
Text: as §1

PI3Ka = PI3Ka (Homo sapiens, UniProt P42336); assay: ADP-Glo kinase assay, high-throughput enzymatic screening (Reaction Biology); assay type: biochemical
PI4KIIIb = PI4KIIIb (Homo sapiens, UniProt Q9UBF8); assay: as above; assay type: biochemical
PI4KIIIb, sequence (Q9UBF8 whole entry): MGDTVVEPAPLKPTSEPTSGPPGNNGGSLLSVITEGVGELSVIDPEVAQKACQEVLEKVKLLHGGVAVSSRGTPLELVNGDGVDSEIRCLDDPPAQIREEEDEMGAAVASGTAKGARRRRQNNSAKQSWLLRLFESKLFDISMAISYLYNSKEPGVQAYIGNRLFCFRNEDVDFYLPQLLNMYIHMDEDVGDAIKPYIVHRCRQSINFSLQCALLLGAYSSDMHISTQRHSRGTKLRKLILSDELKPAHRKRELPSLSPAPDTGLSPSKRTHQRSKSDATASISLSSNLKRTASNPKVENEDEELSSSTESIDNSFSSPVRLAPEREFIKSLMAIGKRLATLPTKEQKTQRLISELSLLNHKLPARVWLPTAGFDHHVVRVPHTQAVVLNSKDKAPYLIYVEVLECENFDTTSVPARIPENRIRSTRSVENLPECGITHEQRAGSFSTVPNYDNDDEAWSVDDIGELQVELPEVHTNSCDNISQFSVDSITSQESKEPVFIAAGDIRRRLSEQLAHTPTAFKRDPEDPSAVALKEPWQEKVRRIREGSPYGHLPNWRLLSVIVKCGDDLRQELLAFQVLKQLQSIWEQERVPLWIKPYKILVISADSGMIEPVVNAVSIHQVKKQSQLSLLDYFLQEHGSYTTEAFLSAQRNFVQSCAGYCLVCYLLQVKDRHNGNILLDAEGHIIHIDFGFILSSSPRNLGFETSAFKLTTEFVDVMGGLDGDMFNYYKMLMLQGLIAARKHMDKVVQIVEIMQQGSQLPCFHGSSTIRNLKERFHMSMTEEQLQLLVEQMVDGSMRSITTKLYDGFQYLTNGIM

[4] = system: lysosomes and MVBs/exosomes; assay: Transmission electron microscopy (TEM) of treated cells; assay type: cell-based, human
[5] = system: normal cells (HBE, human mammary epithelial cells); assay: SRB cell viability assay, normal cells; assay type: cell-based; conditions: 72 hours after treatment, HBE and human mammary epithelial cells
Experimental: as §2, §3
For the SRB assay, cells (2-8×10^3/well in 100 μL of culture medium) were seeded in 96-well flat-bottomed plates and treated the next day with compounds at the indicated concentrations. […] The cells were stained using SRB, and the optical density at 570 nm was determined. […]

PI4KIIb = PI4KIIb (Homo sapiens, UniProt Q8TCG2); assay: ADP-Glo kinase assay, high-throughput enzymatic screening (Reaction Biology); assay type: biochemical
PI4KIIb, sequence (Q8TCG2 whole entry): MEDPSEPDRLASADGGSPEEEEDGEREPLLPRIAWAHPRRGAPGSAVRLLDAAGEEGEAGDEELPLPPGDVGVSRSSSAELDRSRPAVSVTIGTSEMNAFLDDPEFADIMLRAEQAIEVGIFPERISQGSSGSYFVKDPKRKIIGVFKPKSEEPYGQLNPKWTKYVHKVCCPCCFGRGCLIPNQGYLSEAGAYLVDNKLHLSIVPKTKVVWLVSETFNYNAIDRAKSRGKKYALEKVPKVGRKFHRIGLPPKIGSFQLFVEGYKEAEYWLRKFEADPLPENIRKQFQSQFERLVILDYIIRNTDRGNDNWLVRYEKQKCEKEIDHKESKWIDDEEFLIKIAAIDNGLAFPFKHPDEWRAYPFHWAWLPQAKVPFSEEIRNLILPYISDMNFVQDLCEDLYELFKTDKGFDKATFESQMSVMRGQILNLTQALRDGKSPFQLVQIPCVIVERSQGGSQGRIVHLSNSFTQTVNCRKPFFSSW

PI3Kb = PI3Kb (Homo sapiens, UniProt P42338); assay: as above; assay type: biochemical
PI3Kb, sequence (P42338 whole entry): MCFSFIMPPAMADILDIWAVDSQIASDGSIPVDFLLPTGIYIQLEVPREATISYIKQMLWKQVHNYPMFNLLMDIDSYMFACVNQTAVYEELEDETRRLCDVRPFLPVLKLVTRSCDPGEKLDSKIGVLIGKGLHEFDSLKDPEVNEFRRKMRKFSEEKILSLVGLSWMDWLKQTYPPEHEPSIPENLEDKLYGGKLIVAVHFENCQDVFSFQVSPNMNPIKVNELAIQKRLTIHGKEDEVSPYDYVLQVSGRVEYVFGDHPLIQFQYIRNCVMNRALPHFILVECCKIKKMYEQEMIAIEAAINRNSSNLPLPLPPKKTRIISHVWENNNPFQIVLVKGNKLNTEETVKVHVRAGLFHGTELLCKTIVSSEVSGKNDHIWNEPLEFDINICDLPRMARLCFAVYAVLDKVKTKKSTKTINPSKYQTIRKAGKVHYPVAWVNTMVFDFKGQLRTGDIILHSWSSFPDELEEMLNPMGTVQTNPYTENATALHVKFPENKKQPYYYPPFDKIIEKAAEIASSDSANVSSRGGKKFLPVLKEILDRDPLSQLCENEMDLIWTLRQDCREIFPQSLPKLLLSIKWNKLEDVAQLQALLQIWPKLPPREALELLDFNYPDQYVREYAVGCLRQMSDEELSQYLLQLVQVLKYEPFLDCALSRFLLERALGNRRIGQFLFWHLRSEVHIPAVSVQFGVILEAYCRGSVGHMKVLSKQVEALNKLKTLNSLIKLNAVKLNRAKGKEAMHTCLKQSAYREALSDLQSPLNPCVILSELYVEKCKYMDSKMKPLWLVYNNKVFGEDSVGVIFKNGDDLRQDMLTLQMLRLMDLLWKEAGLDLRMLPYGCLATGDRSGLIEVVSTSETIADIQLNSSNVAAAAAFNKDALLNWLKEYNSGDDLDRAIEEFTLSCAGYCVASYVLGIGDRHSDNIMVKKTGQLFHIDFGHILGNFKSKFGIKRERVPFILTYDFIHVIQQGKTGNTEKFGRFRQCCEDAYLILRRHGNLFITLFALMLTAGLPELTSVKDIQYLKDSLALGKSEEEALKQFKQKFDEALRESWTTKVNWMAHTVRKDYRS
PI3Kb, sequence (P27986 whole entry partner): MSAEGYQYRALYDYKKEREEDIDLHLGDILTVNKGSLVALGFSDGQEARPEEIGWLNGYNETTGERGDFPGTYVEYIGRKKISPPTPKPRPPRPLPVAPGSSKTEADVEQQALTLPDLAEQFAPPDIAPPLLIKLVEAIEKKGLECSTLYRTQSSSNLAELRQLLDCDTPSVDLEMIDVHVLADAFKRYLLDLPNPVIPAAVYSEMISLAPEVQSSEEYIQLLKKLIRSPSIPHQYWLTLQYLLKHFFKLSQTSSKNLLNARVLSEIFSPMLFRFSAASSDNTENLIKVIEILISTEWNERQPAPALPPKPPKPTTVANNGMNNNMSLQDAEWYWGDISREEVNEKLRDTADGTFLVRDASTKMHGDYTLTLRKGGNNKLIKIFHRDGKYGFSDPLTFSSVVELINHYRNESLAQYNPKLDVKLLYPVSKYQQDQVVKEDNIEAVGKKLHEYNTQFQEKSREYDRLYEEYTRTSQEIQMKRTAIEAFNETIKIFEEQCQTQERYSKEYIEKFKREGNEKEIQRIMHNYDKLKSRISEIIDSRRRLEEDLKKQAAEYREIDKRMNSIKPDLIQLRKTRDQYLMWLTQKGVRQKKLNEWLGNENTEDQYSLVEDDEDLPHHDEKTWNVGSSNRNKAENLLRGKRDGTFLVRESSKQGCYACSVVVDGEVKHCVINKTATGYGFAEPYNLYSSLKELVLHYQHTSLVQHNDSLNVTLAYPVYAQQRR

**Q.** With `O=C(N/N=C\c1c(O)ccc2ccccc12)c1cccc2cc[nH]c12` [Pac 1, N′—[(Z)-(2-Hydroxy-1-naphthyl)methylene]-1H-indole-7-carbohydrazide] as the compound, how does the “numbers of acidic vesicular organelles” value [1] read?
**A.** substantially decreased

**Q.** What about the “sensitivity (viability) of H1299 cells” value (H1299) of the same compound?
**A.** more sensitive to treatment with Pac 1 than that with Pac 2

**Q.** And the “sensitivity (viability) of A549 cells” value (A549)?
**A.** more sensitive to treatment with Pac 1 than that with Pac 2

**Q.** And the “growth of HeLa cells by microscopy” value (HeLa cells)?
**A.** suppressed the growth of HeLa cells more effectively than did treatment with Pac 2

**Q.** What about the “inhibition of PKR kinase activity” value (PKR) of the same compound?
**A.** did not inhibit

**Q.** What about the “growth of MDA-MB-231 tumor xenografts” value [2] of the same compound?
**A.** inhibited the growth

**Q.** And the “expression of PKR, p-PKR, and Ki-67 protein in tumors” value (H1299 tumor xenografts; H1299 tumors, immunohistochemical analysis)?
**A.** dramatically suppressed

**Q.** And the “growth of H1299 tumor xenografts” value (H1299 tumor xenografts; intravenous injection, over 4 weeks)?
**A.** inhibited the growth

**Q.** What about the “amount of PKR coimmunoprecipitated with PI4K2A” value [3] of the same compound?
**A.** decreased to undetectable levels

**Q.** What about the “PI4K2A, Lamp1, Lamp2, and AP-3δ expression” value (AP-1/2/3 complexes; 5 μM, 72 hours) of the same compound?
**A.** significantly inhibited

**Q.** What about the “expression of proteins associated with AP-1 (Rab7α, HSC70, AP-1γ) or AP-2 (AP-2α)” value (AP-1/2/3 complexes; 72 hours after treatment) of the same compound?
**A.** No reduction of expression

**Q.** And the “inhibition of kinase activity” value (PI3Ka)?
**A.** not other kinases

**Q.** And the “inhibition of kinase activity” value (PI4KIIIb)?
**A.** not other kinases

**Q.** What about the “lysosomes by TEM” value ([4]; HeLa cells, 5 μM) of the same compound?
**A.** destruction of lysosomes

**Q.** What about the “lysosomes and MVBs/exosomes by TEM” value ([4]; HeLaPKRkd cells) of the same compound?
**A.** a lack of lysosomes but enrichment of MVBs/exosomes

**Q.** And the normal cell viability [5]?
**A.** No reduction

**Q.** What about the “inhibition of kinase activity” value (PI4KIIb) of the same compound?
**A.** not other kinases

**Q.** And the “inhibition of kinase activity” value (PI3Kb)?
**A.** not other kinases
